# From patent publication US5093327A, “Inhibition of HIV and other retroviruses by polyoxoanions” (Du Pont Merck Pharmaceutical Company, priority 1991, dated 1992)
# Experiments:
# [1] = system: HIV-IIIB in ATH8 cells; experiment: HIV Infectivity Assay in ATH8 Cells (50% protection from virus-induced cytopathogenesis); type: cell-based; conditions: for HIV Infectivity ATH8 IC50: ATH8 cells, HIV-IIIB, 10 days
# [2] = system: HIV-IIIB in H9 cells (reverse transcriptase); experiment: HIV Infectivity Assay in H9 Cells (HIV reverse transcriptase production); type: cell-based; conditions: day 10
# [3] = system: Friend leukemia virus (FLV); experiment: XC plaque assay for quantitation of Friend leukemia virus (FLV) in vitro; type: cell-based; conditions: for FLV In Vitro IC50: XC plaque formation
# [4] = system: Friend leukemia virus (FLV); experiment: Splenomegaly assay for quantitation of Friend leukemia virus (FLV) in vivo; design: species or system Female Balb/c mice; conditions: for FLV In Vivo ED50: 50% inhibition of virus-induced splenomegaly, once a day through 7 days post-infection, 30240 min
# [5] = system: Rauscher leukemia virus (RLV); experiment: Splenomegaly assay for quantitation of Rauscher leukemia virus (RLV) in vivo; design: species or system Female BALB/c mice; conditions: 50% inhibition of virus-induced splenomegaly, ip, once a day through 14 days post-infection; 30240 min
# Description: Treatment is given once a day, continuing through 14 days post-infection. Ribavirin is used as a positive control compound. Uninfected, vehicle-treated mice serve as normal spleen controls, while infected, vehicle-treated mice serve as infected spleen controls. At 21 days post-infection the mice are sacrificed and spleens are surgically excised and weighed.
# [6] = system: FLV; experiment: Combination therapy with AZT against FLV-induced splenomegaly; type: in vivo, mice
# Description: (§1) Female Balb/c mice are infected intraperitoneally with 0.2 ml of FLV suspension at a concentration predetermined to induce spleen weights of 1-2 grams in vehicle-treated control mice at 21 days post-infection. Beginning 24 hours post-infection, mice (10/group) are treated with 10-100 mg/kg of test compound in Sterile Normal Saline for injection (USP) as a carrier for either intraperitoneal, subcutaneous, intravenous or oral route administration. Treatment is given once a day, continuing through 7 days post-infection. AZT is used as a positive control compound. Uninfected, vehicle-treated mice serve as normal spleen controls, while virus-infected, vehicle-treated mice serve as infected spleen controls. At 21 days post-infection the mice are sacrificed and spleens are surgically excised and weighed. Results are expressed as Treated/Control (T/C), where control represents the means spleen weight of FLV-infected, vehicle-treated mice and is arbitrarily set to 1.0. The doses of test compounds required to inhibit virus-induced splenomegaly by 50% (ED50) are shown in Table 1 as compared to AZT the control compound.
# Since AZT is currently approved for the clinical treatment of HIV/AIDS, a combination therapy of AZT and the compounds of the present invention for the treatment of retrovirus and, particularly HIV/AIDS, may be a favorable alternative treatment plan. In order to determine how effective the compounds would be if given together, the following study was done.
# FLV-infected mice are treated with compound 1 (0.8-20 mg/kg), alone or in combination with AZT (8-200 mg/kg). Starting one day post-infection compounds are given once daily for seven days. Compound 1 is administered subcutaneously (sc) while AZT is administered intraperitoneally (ip) in order not to physically mix the compounds at the same site.
# [7] = system: FLV; experiment: Alternate dosing regimen with combination therapy with AZT against FLV-induced splenomegaly; type: in vivo, mice
# [8] = system: SIV; experiment: Activity against SIV; type: cell-based
# [9] = system: LPBM-5; experiment: Activity against LPBM-5 in vivo
# [10] = system: FLV; experiment: Compound 1/Poly-I:C combination therapy against FLV-induced splenomegaly; type: in vivo, mice; conditions: for reduction of splenomegaly: individual dosing
# Description: as §1
# FLV-infected mice are treated with compound 1 (1.25-20.00 mg/kg S.C. daily x 7d beginning one day post-infection alone or in combination with Poly-I:C (0.31-5.0 mg/kg ip daily x 7d beginning one day post-infection. Results are shown in Table 4.
compound,measurement,setting,value
"1,2-K5 [Compound 2, 1,2-K5 [PV2 W10 O40]]",HIV Infectivity ATH8 IC50,[1],1.0 µg/mL
same,HIV Infectivity RT/H9 IC50,[2],< 10 µg/mL
same,FLV In Vitro IC50,[3],2.5 µg/mL
same,FLV In Vivo ED50,[4],10 to 20 mg/kg
same,RLV In Vivo ED50,[5],15 to 20 mg/kg
"Cc1cn([C@H]2C[C@H](N=[N+]=[N-])[C@@H](CO)O2)c(=O)[nH]c1=O [AZT, 3'-Azido-3'-deoxythymidine, reference compound]",IC50,"[1]; Human immunodeficiency virus 1, IIIB, ATH-8, 240 h, read-out: HIV Infectivity ATH8 IC50",0.005 µg/mL
same,in vitro potency of AZT relative to the polyoxoanions,"[1]; in vitro, data in Table 1",more potent in vitro than the polyoxoanions of the present invention
same,IC50,[3]; read-out: FLV In Vitro IC50,0.005 µg/mL
same,ED50,"[4]; Mus musculus, 504 h, read-out: FLV In Vivo ED50",100 mg/kg
same,T/C (spleen weight),"[6]; AZT 8 mg/kg ip, Cpd 1 0, days 1-7",0.83
same,T/C (spleen weight),"[6]; AZT 40 mg/kg ip, Cpd 1 0, days 1-7",0.69
same,T/C (spleen weight),"[6]; AZT 200 mg/kg ip, Cpd 1 0, days 1-7",0.46
same,percent reduction in splenomegaly,[6]; AZT alone at 200 mg/kg,about 50%
same,T/C (spleen weight),"[7]; AZT 12.5 mg/kg ip daily x 7 days, no Cpd 1 (Control)",0.93
same,T/C (spleen weight),"[7]; AZT 50 mg/kg ip daily x 7 days, no Cpd 1 (Control)",0.71
same,T/C (spleen weight),"[7]; AZT 200 mg/kg ip daily x 7 days, no Cpd 1 (Control)",0.45
same,reduction in splenomegaly,[7]; AZT alone,30-50%
"K6 [Compound 1, K6 [BVW11 O40]]",HIV Infectivity ATH8 IC50,[1],1.0 µg/mL
same,HIV Infectivity RT/H9 IC50,[2],< 10 µg/mL
same,FLV In Vitro IC50,[3],1 µg/mL
same,FLV In Vivo ED50,[4],10 to 20 mg/kg
same,RLV In Vivo ED50,[5],10 to 20 mg/kg
same,IC50 against SIV,[8],< 1 µg/mL
same,ED50 against LPBM-5 in vivo,[9],10 to 20 mg/kg
same,T/C (spleen weight),"[6]; Cpd 1 0.8 mg/kg sc, AZT 0, days 1-7",1.0
same,T/C (spleen weight),"[6]; Cpd 1 4.0 mg/kg sc, AZT 0, days 1-7",0.94
same,T/C (spleen weight),"[6]; Cpd 1 20.0 mg/kg sc, AZT 0, days 1-7",0.52
same,percent reduction in splenomegaly,[6]; compound 1 alone at 20 mg/kg,about 50%
same,T/C (spleen weight),"[7]; Cpd 1 80 mg/kg S.C. days 1 & 10, AZT 0",0.21
same,T/C (spleen weight),"[7]; Cpd 1 80 mg/kg S.C. days 1 & 14, AZT 0",0.17
same,T/C (spleen weight),"[7]; Cpd 1 80 mg/kg S.C. days 1 & 17, AZT 0",0.5
same,efficacy of two doses administered alone,"[7]; two doses of compound 1 alone, 10-17 days apart",efficacious
same,T/C (spleen weight),"[10]; Cpd 1 1.25 mg/kg S.C. daily x 7 days, Poly-I:C 0",0.8
same,T/C (spleen weight),"[10]; Cpd 1 5.0 mg/kg S.C. daily x 7 days, Poly-I:C 0",0.58
same,T/C (spleen weight),"[10]; Cpd 1 20.0 mg/kg S.C. daily x 7 days, Poly-I:C 0",0.33
same,reduction of splenomegaly,[10]; compound 1 20 mg/kg,60%
"K6 [Compound 5, K6 [SiTiW11 O40]]",HIV Infectivity ATH8 IC50,[1],3.2 µg/mL
same,FLV In Vitro IC50,[3],3 µg/mL
same,FLV In Vivo ED50,[4],20 mg/kg
"K7 [Compound 3, K7 [BV^IV W11 O40]]",HIV Infectivity ATH8 IC50,[1],1.5 µg/mL
same,HIV Infectivity RT/H9 IC50,[2],< 10 µg/mL
same,FLV In Vitro IC50,[3],0.1 µg/mL
same,FLV In Vivo ED50,[4],7.5 mg/kg
"K7 [Compound 6, K7 [PTi2 W10 O40]]",HIV Infectivity ATH8 IC50,[1],5.6 µg/mL
same,FLV In Vitro IC50,[3],5 µg/mL
same,FLV In Vivo ED50,[4],IA (Inactive)
"K9 (NH4)H2 [Compound 8, K9 (NH4)H2 [(OCe)3 (PW9 O34)2]]",HIV Infectivity ATH8 IC50,[1],1.0 µg/mL
same,FLV In Vitro IC50,[3],10 µg/mL
same,FLV In Vivo ED50,[4],10 to 20 mg/kg
"Na12 [Compound 7, Na12 [P2 W15 O62]]",HIV Infectivity ATH8 IC50,[1],2.6 µg/mL
same,FLV In Vivo ED50,[4],> 20 mg/kg
"PolyInosinic-PolyCytidylic Acid [Poly-I:C, reference compound]",T/C (spleen weight),"[10]; Poly-I:C 0.31 mg/kg ip daily x 7 d, Cpd 1 0",1.2
same,T/C (spleen weight),"[10]; Poly-I:C 1.25 mg/kg ip daily x 7 d, Cpd 1 0",1.1
same,T/C (spleen weight),"[10]; Poly-I:C 5.0 mg/kg ip daily x 7 d, Cpd 1 0",0.39
same,reduction of splenomegaly,[10]; Poly-I:C 5 mg/kg,60%
"β-Cs5 [Compound 4, β-Cs5 [PV2 W10 O40]]",HIV Infectivity ATH8 IC50,[1],1.6 µg/mL
same,HIV Infectivity RT/H9 IC50,[2],< 10 µg/mL
same,FLV In Vitro IC50,[3],7 µg/mL
same,FLV In Vivo ED50,[4],10 to 20 mg/kg
